Test [1] deals with caspase-3. The test is described as follows: Caspase-3 activity by Western blotting with cleaved caspase-3 antibody in ethanol-treated liver cells. The class given is cell-based, Sprague-Dawley rats or C57BL/6 mouse. Particulars: pretreatment 100 μM; ethanol 24 hours; FIG. 2. The method, then:
(§1) Liver cells were separated from Sprague-Dawley rats (8 to 10 weeks) or C57BL/6 (8 to 10 weeks) mouse via in situ collagenase perfusion, and then cultured in DMEM containing 10% FBS, 100 U/ml penicillin, 100 μg/ml streptomycin, 4 mM L-glutamine, and 100 nM dexamethasone. After 3 hours, the culture solution was replaced with DMEM including 0.1% FBS and 10 nM dexamethasone, and then, cultured for 16 hours (overnight). For the treatment, the cells were treated with various concentrations of ethanol (0, 100, 200 mM) alone or together with cilostazol (Otsuka) or pentoxifylline which is used as a therapeutic agent for alcoholic hepatitis, and the resultant cell reactions were compared with each other. After the treatment with ethanol, a culture dish was sealed with a parafilm to prevent evaporation of ethanol.

Test [2] concerns caspase-3. The test is described as follows: Caspase-3 colorimetric activity assay kit (DEVD-pNA) in ethanol-treated liver cells. The class given is cell-based, Sprague-Dawley rats or C57BL/6 mouse. Particulars: liver cells pretreated, FIG. 3. The method, then:
as §1, with “ethanol. Also, the caspase-3 activity was measured by using an activity assay kit (R&D kit). That is, caspase-3 activity was measured by using a caspase-3 colorimetric assay kit (R&D system, Minneapolis, Minn.). Liver cells were lysed by using lysis buffer, and then the protein (150 μg) was incubated with DEVD-pNA, a caspase-3 substrate at 37° C. for 2 hours, and then absorption of the product was measured at a wavelength of 405 nm.” for “ethanol.”

Test [3] relates to FAS (fatty acid synthase) gene. The test is described as follows: Liver FAS gene expression (real-time PCR) in alcohol-induced acute liver injury animal model. Particulars: mice; oral 100 mg/kg for 4 days before ethanol 6 g/kg oral; FAS mRNA normalized to β-actin; FIG. 11. The format is in vivo.
Description: Eight-week old mice were subjected to binge alcohol drinking to induce liver damage. That is, mice were administered orally 6 g/kg of ethanol once. Cilostazol was orally administered in doses of 50 mg/kg/day and 100 mg/kg/day for 4 days before ethanol administration, and ethanol was orally administered 1 h after the last cilostazol administration. Then, animals were sacrificed at different time after ethanol administration.
Effects of cilostazol on the expression of FAS gene were identified by real-time PCR assay. That is, total RNA was extracted from liver tissues by using a trizol reagent, and then 1 μg of total RNA was reverse-transcribed into cDNA by using high-performance cDNA reverse transcription kit (Applied Biosystems, Foster City, Calif., USA). The PCR reaction was performed such that cDNA, the respective primers were reacted with power SYBR Green PCR master mix (Applied Biosystems) by using real-time PCR 7500 software system (Applied Biosystem). The PCR conditions were initial incubation at 95° C. for 10 minutes, followed by 45 cycles of 95° C. for 15 seconds, 55° C. for 20 seconds, and 72° C. for 35 seconds.
FAS mRNA level was normalized to β-actin mRNA level, and shown in fold increase.
The test system of test [4] is TNF-α. The test is described as follows: LPS-stimulated TNF-α production in RAW264.7 macrophage (ELISA). Particulars: pretreatment, LPS 50 ng/ml, 4 hours, FIG. 5. The format is cell-based. The method, then: RAW264.7 cells were obtained from Korean Cell Line Bank and cultured in a DMEM solution containing 10% FBS, 100 U/ml penicillin, and 100 μg/ml streptomycin for use in experiments. To compare direct effects of ethanol with indirect effects caused by endotoxin, effects of LPS were identified. RAW264.7 macrophage prepared as described above was treated with LPS (50 ng/ml) for 4 hours, and then, TNF-α level in the cell culture was measured by using ELISA kit (R&D).

The subject of test [5] is caspase-3. As to the kind of experiment: Liver caspase-3 activity in alcohol-induced acute liver injury animal model. The class given is in vivo. Particulars: mice; oral 100 mg/kg for 4 days before ethanol 6 g/kg oral; FIG. 9. The procedure: Also, the caspase-3 activity was measured by using an activity assay kit (R&D kit). That is, caspase-3 activity was measured by using a caspase-3 colorimetric assay kit (R&D system, Minneapolis, Minn.). Liver cells were lysed by using lysis buffer, and then the protein (150 μg) was incubated with DEVD-pNA, a caspase-3 substrate at 37° C. for 2 hours, and then absorption of the product was measured at a wavelength of 405 nm.

Test [6] deals with RAW264.7 macrophage. The test is described as follows: LPS-induced ROS production in RAW264.7 macrophage (H2DCFDA, FACS). Particulars: pretreatment 100 μM for 1 hour; LPS 50 ng/ml, 4 hours; FIG. 7. The format is cell-based. The method, then:
RAW264.7 cells were obtained from Korean Cell Line Bank and cultured in a DMEM solution containing 10% FBS, 100 U/ml penicillin, and 100 μg/ml streptomycin for use in experiments. To compare direct effects of ethanol with indirect effects caused by endotoxin, effects of LPS were identified. RAW264.7 macrophage prepared as described above was treated with LPS (50 ng/ml) for 0 to 18 hours. Separately, RAW264.7 macrophage prepared as described above was pretreated with cilostazol (100 μM) or pentoxifylline (100 μM) for 1 hour and then, treated with LPS (50 ng/ml) for 4 hours. The RAW264.7 macrophages were treated with H2DCFDA (50 μM) for 40 minutes, and then, the production of ROS was evaluated by using FACS.

Test [7] relates to primary cultured liver cells. As to the kind of experiment: Hoechst staining of liver cell apoptosis caused by ethanol. Particulars: pretreatment; Hoechst 33342; FIG. 4. The format is cell-based, Sprague-Dawley rats or C57BL/6 mouse. The procedure: Liver cells were separated from Sprague-Dawley rats (8 to 10 weeks) or C57BL/6 (8 to 10 weeks) mouse via in situ collagenase perfusion, and then cultured in DMEM containing 10% FBS, 100 U/ml penicillin, 100 μg/ml streptomycin, 4 mM L-glutamine, and 100 nM dexamethasone. After 3 hours, the culture solution was replaced with DMEM including 0.1% FBS and 10 nM dexamethasone, and then, cultured for 16 hours (overnight).
For the treatment, the cells were treated with various concentrations of ethanol (0, 100, 200 mM) alone or together with cilostazol (Otsuka) or pentoxifylline which is used as a therapeutic agent for alcoholic hepatitis, and the resultant cell reactions were compared with each other. After the treatment with ethanol, a culture dish was sealed with a parafilm to prevent evaporation of ethanol.

In test [8] the test system is primary cultured liver cells. The test is described as follows: MTS assay, viability of primary cultured liver cells treated with ethanol. The class given is cell-based, Sprague-Dawley rats or C57BL/6 mouse. Particulars: pretreatment 100 μM; ethanol 100, 200 mM for 24 hour; vs DMSO group; FIG. 1. The procedure: as §1, with “ethanol. MTS assay was performed in the following manner to identify effects of cilostazol on decreased liver cell viability caused by ethanol. That is, the viability of liver cells was measured by using a MTS assay kit (Promega, Madison, Wis., USA). […] An MTS solution were added to the respective wells and then, the cells were incubated at 37° C. for 4 hours, and absorption of the result was measured at a wavelength of 490 nm.” for “ethanol.”

Take `O=C1CCc2cc(OCCCCc3nnnn3C3CCCCC3)ccc2N1` [cilostazol]: the “caspase-3 activity (cleaved caspase-3, Western blot) increased by ethanol, effect of pretreatment” value in test [1] is “cilostazol showed better inhibitory effects than pentoxifylline”. Also, in test [2], the “caspase-3 activity (activity assay kit) increased by ethanol, effect of pretreatment” value is recorded as “almost completely inhibited”. Moreover, in test [3], the “reduction of liver FAS gene expression after ethanol administration” value is listed as “about 30%”. In test [4] (p=0.016), the “decrease of LPS-increased TNF-α level in culture media” value is on record as approximately 50%. For the same molecule, the “liver caspase-3 activity after ethanol administration” value in test [5] was “significantly reduced”. Besides, the “production of ROS induced by LPS, effect of pretreatment” value in test [6] is given as “neither cilostazol nor pentoxifylline significantly inhibited”. For the same molecule, in test [7], the “nuclear fragmentation caused by ethanol” value is listed as “reduced”. Also, the “liver cell viability decreased by ethanol, effect of pretreatment” value in test [8] was “significantly recovered”.

Turning to `CC(=O)CCCCn1c(=O)c2c(ncn2C)n(C)c1=O` [pentoxifylline], the “caspase-3 activity (cleaved caspase-3, Western blot) increased by ethanol, effect of pretreatment” value in test [1] is listed as “reduced”. Besides, the “caspase-3 activity (activity assay kit) increased by ethanol, effect of pretreatment” value in test [2] was “reduced caspase-3 activity caused by ethanol, but the inhibitory effect of pentoxifylline was smaller than that of cilostazol”. For the same molecule, the “inhibitory effect on LPS-increased TNF-α level in culture media” value in test [4] is on record as “did not show significant inhibitory effects”. For the same molecule, the “production of ROS induced by LPS, effect of pretreatment” value in test [6] is reported as “neither cilostazol nor pentoxifylline significantly inhibited”. For the same molecule, the “liver cell viability decreased by ethanol, effect of pretreatment” value in test [8] is recorded as “did not significantly improve the cell viability”.

(Values after patent US20130267558A1, “PHARMACEUTICAL COMPOSITION FOR TREATING OR PREVENTING ALCOHOLIC LIVER DISEASES, CONTAINING CILOSTAZOL AS ACTIVE INGREDIENT” (INDUSTRY-ACADEMIC COOPERATION FOUNDATION YEUNGNAM UNIVERSITY, priority 2010, published 2013).)
